In patent US4960900A, “Oxyimino derivatives of thiazole, method of preparation and use in therapy” (priority 1987, dated 1990):
Where two headings read alike, the source gives them in different places.

Legend:
in vivo [1] = conditions: mouse, in vivo, po; for selectivity ratio: LD50 per os/ED50 per os
Protocol: (§1) The toxicity of the products to be studied was investigated by the oral administration, using an esophageal tube, of each of the said products to male mice with a body weight of 18 to 22 g, divided into groups each containing 10 to 20 animals. The mortality was recorded over a 14-day period.
(§2) The results obtained, which are expressed in the form of LD50 in mg/kg, are collated in Table II below.

[2] = system: convulsions induced by supramaximal electroshock (MCE); experiment: Anticonvulsant properties: convulsions induced by supramaximal electroshock (MCE), oral, mice; type: in vivo; conditions: per os, male mice, 30 min after administration; for ED50: Mus musculus, po, 0.5 h, read-out: ED50 in respect of convulsions induced by MCE
Source text: MCE: supramaximal electroshock;
*: ED50 in mg/kg, determined per os on groups each containing ten

[3] = system: convulsions induced by pentetrazole (PTZ); experiment: Anticonvulsant properties: convulsions induced by pentetrazole (PTZ), oral, mice; type: in vivo; conditions: per os, male mice, 30 min after administration, pentetrazole 125 mg/kg i.p.; for ED50: Mus musculus, po, 0.5 h, read-out: ED50 in respect of convulsions induced by PTZ
male mice [4] = experiment: in vivo; conditions: for LD50: male mice; for Therapeutic index MCE / Therapeutic index PTZ: LD50 per os/ED50 per os
Protocol: as §1, §2

male mice [5] = experiment: in vivo; type: in vivo
Protocol: (§3) The neurotoxic properties were assessed on male mice by the so-called "Rota-rod" test carried out thirty minutes after the oral administration of the substances to be studied. The animals (divided into groups each containing ten male mice per dose and per product) are installed on the rod and their fall is observed over the next two minutes.
(§4) The results obtained are expressed in the form of the 50% neurotoxic dose (TD50) per os, which is the dose causing 50% of the animals to fall.
(§5) Protection index: TD50 per os/ED50 per os
(§6) *dose determined per os on groups each containing ten male mice.

in vivo [6] = type: in vivo; conditions: mouse, in vivo, po
Protocol: as §3, §4, §5, §6

convulsive seizures = experiment: Anticonvulsant properties in mice, overall statement (PTZ and MCE); type: in vivo, male mice; conditions: for most effective products according to the invention: in view of protection and therapeutic indices, Table IV
Protocol: The anticonvulsant properties were investigated on male mice, thirty minutes after the oral administration of the substances to be studied, by the induction of convulsive seizures.
These seizures are caused either by the intraperitoneal injection of pentetrazole (125 mg/kg) or by electrical stimulation of the cornea (supra-maximal electroshock, abbreviated to MCE).
The results, expressed in the form of the 50% effective dose (ED50) per os (dose protecting 50% of the animals), are collated in Table III below.

[7] = LD50, Table II, male mice, 14 days
[8] = LD50, Table IV, per os, male mice
[9] = TD50 per os/ED50 per os, MCE, read-out: Protection index MCE
[10] = TD50 per os/ED50 per os, PTZ, read-out: Protection index PTZ
[11] = Rota-rod, per os, male mice, 30 min after administration, read-out: TD50
[12] = versus sodium valproate and trimethadione

CC(=NO)c1scnc1C [Ex. 28, 5-(1-hydroxyiminoethyl)-4-methylthiazole]
LD50 at 336 h (in vivo [1]; [7]): 1000 mg/kg
ED50 [2]: > 200 mg/kg
ED50 [3]: 126 mg/kg

COC(=O)CON=C(C)c1scnc1C [Ex. 18]
LD50 at 336 h (in vivo [1]; [7]): > 1000 mg/kg
ED50 [2]: > 200 mg/kg
ED50 [3]: > 200 mg/kg

CON=C(C)c1sc(C)nc1C [Ex. 27]
LD50 (male mice [4]; Table II, oral, 14 days, 20160 min): 1000 mg/kg
ED50 in respect of convulsions induced by MCE [2]: > 200 mg/kg
ED50 in respect of convulsions induced by PTZ [3]: > 200 mg/kg

CC(=NO)c1scnc1C [Ex. 29]
LD50 (male mice [4]; Table II, oral, 14 days): 1000 mg/kg
ED50 in respect of convulsions induced by MCE [2]: > 200 mg/kg
ED50 in respect of convulsions induced by PTZ ([3]; 30 min): 200 mg/kg

CC(=NOCC(=O)O)c1scnc1C [Ex. 19]
LD50 at 336 h (in vivo [1]; [7]): > 1000 mg/kg
ED50 [2]: > 200 mg/kg
ED50 [3]: > 200 mg/kg

CON=C(C)c1scnc1C.Cl [Ex. 2, 5-(1-methoxyiminoethyl)-4-methylthiazole hydrochloride]
Therapeutic index MCE (male mice [4]): 10.0
Therapeutic index PTZ (male mice [4]): 13.9
LD50 at 336 h (in vivo [1]; [7]): 1000 mg/kg
LD50 at 336 h (in vivo [1]; [8]): 1000 mg/kg
ED50 [2]: 100 mg/kg
Protection index MCE (male mice [5]; mouse, in vivo, po): 2.7
Protection index PTZ (male mice [5]; mouse, in vivo, po): 3.8
TD50 at 0.5 h (in vivo [6]; TD50): 270 mg/kg
ED50 [3]: 72 mg/kg

CN1C(=O)OC(C)(C)C1=O [TRIM, trimethadione, reference compound]
selectivity ratio (in vivo [1]; Therapeutic index MCE, MCE): 4.4
selectivity ratio (in vivo [1]; Therapeutic index PTZ, PTZ): 8.7
ED50 [2]: 500 mg/kg
selectivity ratio (in vivo [6]; [9]): 2
selectivity ratio (in vivo [6]; [10]): 4

CON=C(C)c1sc(C)nc1C [Ex. 26]
LD50 at 336 h (in vivo [1]; [7]): > 1000 mg/kg
ED50 [2]: > 200 mg/kg
ED50 [3]: > 200 mg/kg

CC(=NOCc1ccccc1C)c1scnc1C [Ex. 15]
LD50 at 336 h (in vivo [1]; [7]): > 1000 mg/kg
ED50 [3]: 60 mg/kg

CC(=NOC(C)C)c1scnc1C [Ex. 7]
LD50 (male mice [4]; Table II, oral, 14 days): > 1000 mg/kg
ED50 in respect of convulsions induced by MCE [2]: > 200 mg/kg
ED50 in respect of convulsions induced by PTZ ([3]; 30 min): 140 mg/kg

CCON=C(C)c1scnc1C [Ex. 4]
LD50 at 336 h (in vivo [1]; [7]): 1000 mg/kg
ED50 [2]: 150 mg/kg
ED50 [3]: 120 mg/kg

CC(=NOCc1ccccc1)c1scnc1C [Ex. 11, 5-(1-benzyloxyiminoethyl)-4-methylthiazole]
Therapeutic index PTZ (male mice [4]): > 21.7
LD50 (male mice [4]; Table IV, per os, 20160 min): > 1000 mg/kg
selectivity ratio (in vivo [1]; Therapeutic index MCE, MCE): > 12.8
ED50 in respect of convulsions induced by MCE ([2]; 30 min): 78 mg/kg
most effective products according to the invention (convulsive seizures): most effective
selectivity ratio (in vivo [6]; [9]): 12.8
selectivity ratio (in vivo [6]; [10]): 21.7
TD50 at 0.5 h (in vivo [6]; [11]): 1000 mg/kg
ED50 in respect of convulsions induced by PTZ ([3]; 30 min): 46 mg/kg

CO/N=C(\C)c1scnc1C [Ex. 3, 5-(1-methoxyiminoethyl)-4-methylthiazole]
LD50 at 336 h (in vivo [1]; [7]): 570 mg/kg
LD50 at 336 h (in vivo [1]; [8]): 570 mg/kg
selectivity ratio (in vivo [1]; Therapeutic index MCE, MCE): 5.9
selectivity ratio (in vivo [1]; Therapeutic index PTZ, PTZ): 6.3
ED50 [2]: 97 mg/kg
activity as an anticonvulsant (convulsive seizures; pure E isomer versus mixture E/Z=91/9): less active than the corresponding mixture E/Z=91/9
selectivity ratio (in vivo [6]; Protection index MCE): 3
selectivity ratio (in vivo [6]; Protection index PTZ): 3.2
TD50 at 0.5 h (in vivo [6]; TD50): 290 mg/kg
ED50 [3]: 91 mg/kg

CC(=NOCc1ccccc1F)c1scnc1C [Ex. 13]
LD50 (male mice [4]; Table IV, per os, 20160 min): > 1000 mg/kg
therapeutic indices compared with the reference products (male mice [4]; [12]): better than those of the reference products
LD50 at 336 h (in vivo [1]): > 1000 mg/kg
selectivity ratio (in vivo [1]; Therapeutic index MCE, MCE): > 5.4
selectivity ratio (in vivo [1]; Therapeutic index PTZ, PTZ): > 9.5
ED50 [2]: 184 mg/kg
protection indices compared with the reference products (male mice [5]; [12]): better than those of the reference products
selectivity ratio (in vivo [6]; [9]): 4
selectivity ratio (in vivo [6]; [10]): 7.1
TD50 at 0.5 h (in vivo [6]; [11]): 750 mg/kg
ED50 [3]: 105 mg/kg

CC(=NOCc1ccccc1)c1scnc1C [Ex. 12]
Therapeutic index MCE (male mice [4]): > 6.4
Therapeutic index PTZ (male mice [4]): > 10.0
therapeutic indices compared with the reference products (male mice [4]; mouse, in vivo): better than those of the reference products
LD50 at 336 h (in vivo [1]; LD50): > 1000 mg/kg
ED50 in respect of convulsions induced by MCE ([2]; 30 min): 157 mg/kg
most effective products according to the invention (convulsive seizures): most effective
protection indices compared with the reference products (male mice [5]; mouse, in vivo): better than those of the reference products
selectivity ratio (in vivo [6]; Protection index MCE): 8.6
selectivity ratio (in vivo [6]; Protection index PTZ): 13.5
TD50 at 0.5 h (in vivo [6]; TD50): 1350 mg/kg
ED50 in respect of convulsions induced by PTZ ([3]; 30 min): 100 mg/kg
